Laboratory results taken from patent US20150011566A1, “N-PHENYLPIPERAZINE DERIVATIVES THAT ARE ANTAGONISTS OF A1A, A1D ADRENOCEPTORS AND 5-HT1A RECEPTORS FOR THE TREATMENT OF BENIGN PROSTATE HYPERPLASIA, PHARMACEUTICAL COMPOSITIONS CONTAINING THE SAME” (UNIVERSIDADE FEDERAL DO RIO DE JANEIRO-UFRJ, priority 2012, published 2015).
Like-named read-outs stand apart in the source and are kept apart here.

Key:
[1] = target: T1, 5-HT1A receptors (Rattus norvegicus, UniProt P19327); assay: Binding of [3H]-8-OH-DPAT to 5-HT1A receptors (rat hippocampus membranes)
T1 construct: Intrinsic Activity at Native 5-HT1A Receptors; from tissue; host or cells: rat hippocampus membranes
T1 sequence (P19327 1-422): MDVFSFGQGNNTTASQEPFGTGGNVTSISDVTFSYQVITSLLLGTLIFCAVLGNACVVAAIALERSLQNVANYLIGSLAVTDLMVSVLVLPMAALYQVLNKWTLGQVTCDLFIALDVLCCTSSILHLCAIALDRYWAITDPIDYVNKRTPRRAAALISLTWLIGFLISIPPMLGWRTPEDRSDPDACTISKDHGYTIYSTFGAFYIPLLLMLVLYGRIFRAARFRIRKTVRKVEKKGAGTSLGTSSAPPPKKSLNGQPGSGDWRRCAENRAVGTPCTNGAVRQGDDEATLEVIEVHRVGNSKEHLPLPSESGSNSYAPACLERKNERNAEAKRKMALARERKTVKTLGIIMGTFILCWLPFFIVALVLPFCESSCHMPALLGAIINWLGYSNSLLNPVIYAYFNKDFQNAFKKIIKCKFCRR
Experimental: Membrane preparations of rat hippocampus according to previously described by HALL et al (1985) and PEROUTKA (1986) were performed. The homogenization and centrifugation steps were performed identically to that described above for receptors α2A and 5-HT2A receptors.
The binding assays for the 5-HT1A receptors were performed as described previously in the literature and previously standardized in the laboratory through saturation experiments. […] (solvent for dilution of LDT's) for the determination of total binding, or 50 μL non-radioative serotonin at 10 μM to determine the non-specific binding (final volume of 500 μL). Assays were performed in triplicate. […] Assays were performed in triplicate.
(§1) After the incubation period, the reaction was stopped by adding 4 ml of ice-cold solution containing 5 mM Tris (pH 7.4), followed by vacuum filtration on glass fiber filter (GMF 3, Filtrak®) previously soaked with solution 0.5% polyethylenoimine. The filters were washed three times with 4 mL of ice-cold solution containing 5 mM Tris (pH 7.4) under vacuum to remove all free radioligand. Then the filters were dried and placed in vials containing 5 ml scintillation fluid (composition: 4% PPO, 0.1% POPOP w/p in toluene). The radioactivity retained on the filters was then determined in a liquid scintillation counter (Packard Tri-Carb 1600 TR). […] For these receptors were also determined the LC50 and Ki parameters.

[2] = target: T2, 5-HT2A receptors (Rattus norvegicus, UniProt P14842); assay: [3H]-ketanserin binding to 5-HT2A receptors (rat cortex membranes)
T2 construct: from tissue; host or cells: rat cortex membranes
T2 sequence (P14842 whole entry): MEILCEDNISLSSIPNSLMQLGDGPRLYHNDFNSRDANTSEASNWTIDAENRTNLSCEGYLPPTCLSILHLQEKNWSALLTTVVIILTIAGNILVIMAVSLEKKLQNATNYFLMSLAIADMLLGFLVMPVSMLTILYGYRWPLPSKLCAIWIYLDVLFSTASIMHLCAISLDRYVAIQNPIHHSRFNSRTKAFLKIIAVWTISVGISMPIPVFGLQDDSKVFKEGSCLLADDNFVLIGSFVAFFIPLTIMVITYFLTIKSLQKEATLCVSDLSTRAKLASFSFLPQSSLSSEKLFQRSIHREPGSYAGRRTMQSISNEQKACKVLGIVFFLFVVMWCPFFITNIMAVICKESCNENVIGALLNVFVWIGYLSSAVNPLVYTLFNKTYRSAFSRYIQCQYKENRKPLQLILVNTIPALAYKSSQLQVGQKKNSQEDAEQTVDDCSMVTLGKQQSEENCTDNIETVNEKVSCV
Experimental: Membrane preparations of rat cortex as described previously in the literature were performed. The organs were homogenized in a Potter with the aid of a motor unit (Fisatom) and Teflon piston in the proportion of 20 parts of 50 mM Tris HCl (pH 7.4 at 4° C.) for one piece of material, three times for 30 seconds each time, at intervals the solution was allowed to stand on ice for 1 minute.
Then it was performed a centrifugation at 900×g for 10 minutes at 4° C. It was obtained a […] which was resuspended in solution cold 50 mM Tris-HCl (pH 7.4) and the same procedure was performed once more. The supernatant was then centrifuged at 48,000×g for 10 minutes at 4° C. yielding a pellet which was resuspended at a ratio of 20 parts of 50 mM Tris HCl (pH 7.4 at 4° C.) for one piece of material, and incubated at 37° C. for 10 minutes in order to remove the endogenous neurotransmitters. Finally, centrifugation two times more at 48,000×g was performed for 10 minutes at 4° C., and then the final pellet was resuspended in a solution of 50 mM Tris-HCl (pH 7.4).
The binding assays for 5-HT2A receptors were performed as described in the literature. […] (solvent for dilution of the LDT's), to determine the total binding, or 50 μL non-radioactive ketanserin at 10 μM for the determination of nonspecific binding (final volume of 500 μL). Assays were performed in triplicate.
as §1, with “polyethylenoimine” for “polyethylenoimine.”, “(4%” for “(composition: 4%”, “w/v” for “w/p”, “To” for “For”, “CI50” for “the LC50”

[3] = Table 8, Cheng-Prusoff, read-out: Ki
[4] = Table 11, Cheng-Prusoff, read-out: Ki
[5] = Table 10, Cheng-Prusoff, read-out: Ki
[6] = Table 10, read-out: log CI50 ± EPM (converted)
[7] = Table 9, agonist radioligand [3H] 8-OH-DPAT, read-out: Ki high
[8] = Ki high (nM), Table 13, agonist radioligand [3H] 8-OH-DPAT

Row | Compound | log IC50 (M) ([1]; Table 8) | Ki [1, 3] | log IC50 (M) ([2]; Table 11) | Ki [2, 4] | IC50 [1] | further results
1 | CCN1CCN(c2ccccc2OC)CC1 [LDT 62] | −6.47 ± 0.10 M | 147 nM | −5.00 ± 0.06 M | 6410 nM | – | –
2 | CCN1CCN(c2ccccc2O)CC1 [LDT 70] | −6.15 ± 0.08 M | 316 nM | −4.20 ± 0.03a M | 40400 nM | – | –
3 | COc1ccccc1N1CCN(CCC2CCCCC2)CC1 [LDT 6] | – | – | – | – | – | Ki ([1]; Table 7, Cheng-Prusoff, read-out: KI): 0.242 nM; IC50 ([1]; Table 7, read-out: log CI50 ± EPM (converted)): 0.589 nM; Ki [2, 5]: 376 nM; IC50 [2, 6]: 589 nM
4 | CCCCCCCCN1CCN(c2ccccc2OC)CC1 [LDT 68] | −7.70 ± 0.30b M | 9 nM | −5.64 ± 0.08b M | 1470 nM | – | Ki [1, 7]: 9 nM
5 | CCCCN1CCN(c2ccccc2OC)CC1 [LDT 64] | −6.72 ± 0.19 M | 84 nM | −5.06 ± 0.09 M | 5580 nM | – | –
6 | CCN1CCN(c2ccccc2)CC1 [LDT 39] | −5.93 ± 0.13 M | 520 nM | −5.16 ± 0.16 M | 4440 nM | – | –
7 | CCCCCCCN1CCN(c2ccccc2OC)CC1 [LDT 67] | −7.42 ± 0.19b M | 18 nM | −5.53 ± 0.13b M | 1890 nM | – | Ki [1, 7]: 18 nM
8 | CCCCCN1CCN(c2ccccc2OC)CC1 [LDT 65] | – | – | – | – | 38 nM | Ki ([1]; Ki (nM), Table 8, Cheng-Prusoff): 18 nM; Ki ([1]; Ki high (nM), Table 9, agonist radioligand [3H] 8-OH-DPAT): 18 nM; IC50 [2]: 4570 nM; Ki [2]: 2930 nM
9 | CCOc1ccccc1N1CCN(CCc2ccc3c(c2)OCO3)CC1 [LDT 8] | – | – | – | – | 0.0575 nM | Ki [1, 8]: 0.018 nM; Ki ([1]; Ki, text b157): 0.0237 nM; Ki [2, 5]: 248 nM; IC50 [2, 6]: 389 nM
10 | COc1ccc(CCN2CCN(c3ccccc3OC)CC2)cc1 [LDT 4] | – | – | – | – | 2.4 nM | Ki ([1]; KI (M), Table 7, Cheng-Prusoff): 0.988 nM; IC50 [2]: 69.2 nM; Ki [2]: 44.2 nM
11 | COc1ccccc1N1CCN(CCc2ccccc2)CC1 [LDT 2] | – | – | – | – | 3.02 nM | Ki ([1]; KI (M), Table 7, Cheng-Prusoff): 1.24 nM; IC50 [2]: 74.1 nM; Ki [2]: 47.4 nM
12 | CCOc1ccccc1N1CCN(CC)CC1 [LDT 69] | −6.86 ± 0.30 M | 62 nM | −5.02 ± 0.06 M | 6120 nM | – | –
13 | CCCCCCN1CCN(c2ccccc2OC)CC1 [LDT 66] | −7.93 ± 0.20a M | 5 nM | −5.57 ± 0.16b M | 1720 nM | – | Ki [1, 7]: 5 nM
14 | CCCN1CCN(c2ccccc2OC)CC1 [LDT 63] | −6.37 ± 0.03 M | 191 nM | −4.86 ± 0.13 M | 8850 nM | – | –
15 | COc1ccc(CCN2CCN(c3ccccc3OC)CC2)cc1OC [LDT 5] | – | – | – | – | 6.17 nM | Ki ([1]; KI (M), Table 7, Cheng-Prusoff): 2.54 nM; Ki [1, 8]: 3.89 nM; IC50 [2]: 389 nM; Ki [2]: 248 nM
16 | COc1cccc(CCN2CCN(c3ccccc3OC)CC2)c1 [LDT 3] | – | – | – | – | 2.75 nM | Ki ([1]; KI (M), Table 7, Cheng-Prusoff): 1.13 nM; Ki [1, 8]: 1.79 nM; IC50 [2]: 70.8 nM; Ki [2]: 45.2 nM
17 | CCOc1ccccc1N1CCN(CCc2ccc(OC)c(OC)c2)CC1 [LDT 245] | – | – | – | – | 9.33 nM | Ki ([1]; KI (M), Table 7, Cheng-Prusoff): 3.8 nM
